Assay results taken from PubChem BioAssay (NCI).
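In this assay, cells in 96-well plates receive the compound at five concentrations for 48 hours. Endpoints are linearly interpolated between the surrounding concentrations. GI50 marks 50% less growth. Definition used: TGI = concentration required for complete inhibition of growth.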

Assays:
Experiment in all cases: DTP human tumour cell line panel, 48 h
A549 NSCLC = system: A549 NSCLC
ACHN renal = system: ACHN renal
BT-549 breast = system: BT-549 breast
HS 578T breast = system: HS 578T breast
KM12 colon = system: KM12 colon
RXF 393 renal = system: RXF 393 renal
SF-295 CNS = system: SF-295 CNS
SN12C renal = system: SN12C renal

SMILES	TGI (A549 NSCLC) [µM]	TGI (ACHN renal) [µM]	TGI (BT-549 breast) [µM]	TGI (HS 578T breast) [µM]	TGI (KM12 colon) [µM]	TGI (RXF 393 renal) [µM]	TGI (SF-295 CNS) [µM]	TGI (SN12C renal) [µM]	GI50 (A549 NSCLC) [µM]	GI50 (ACHN renal) [µM]	GI50 (BT-549 breast) [µM]	GI50 (HS 578T breast) [µM]	GI50 (KM12 colon) [µM]	GI50 (RXF 393 renal) [µM]	GI50 (SF-295 CNS) [µM]	GI50 (SN12C renal) [µM]
O=C1OC(c2ccc(O)c(-c3ccccc3)c2)(c2ccc(O)c(-c3ccccc3)c2)c2c(Cl)c(Cl)c(Cl)c(Cl)c21	> 100	> 100	> 100	> 100	> 100	> 100	> 100	> 100								
CN1CCN(c2ccc3nc(-c4cc(C(C)(C)C)c(O)c(C(C)(C)C)c4)[nH]c3c2)CC1	11.5	8.62	6.43	5.51	4.32	3.52	3.66	16.5	3.26	3.06	2.23	2.33	1.8	1.72	1.83	4.64
C#C[C@]1(O)CC[C@H]2[C@@H]3CC=C4c5sc(N=C(N)N)nc5CC[C@]4(C)[C@H]3CC[C@@]21C	2.72	2.21	2.49	1.11	2.55	0.555	0.452	2.72	0.865	0.971	1.08	0.243	1.1	0.141	0.188	1.31
COc1ccc(-c2n[nH]nc2-c2csc3ccccc23)cc1OC	70.9	76	12.5	10.6	24.1	6.71	11.7	79.9	4.52	3.94	2.17	2.25	2.28	2.11	2.33	8.8
CS(=O)(=O)CCNCc1ccc(-c2ccc3ncnc(Nc4ccc(OCc5cccc(C(F)(F)F)c5)cc4)c3c2)o1	> 25	> 25	> 21.8	> 19.4	13.2	13.6	11.3	> 19.1	6.49	7.38	9.57	7.02	5.74	5.28	5.08	7.81
COc1cnc2c(c1)C(=O)c1c-2n(CCCn2ccnc2)c(=O)c2cc(Cl)ccc12	> 100	61.4	> 100	> 100	> 100	0.235	0.0794		0.0663	0.0301	0.146	11.4	0.238	0.0407	0.0251	
CCCCCCCCCCCCCCCc1cc(O)ccc1N	> 100	> 100	> 74.7	99.4	> 100	> 84.6	> 100	> 100	> 100	> 100	0.305	17	7.43	18.5	3.46	> 20.1
Cn1c(COC(=O)N2CCCCC2)nc2c(N3CCOCC3)nc(-c3ccccc3)nc21	3.45	1.29	2.26	2.91	3.22	1.76	2.97	2.17	1.48	0.352	1.01	0.698	1.46	0.508	1.58	0.868
O=C(Nc1cc(C(F)(F)F)ccc1F)Nc1n[nH]c2ccccc12	> 100	> 100	> 100	> 100	> 100	> 100	> 100	> 100	> 100	> 100	> 100	> 100	> 100	> 100	> 100	> 100
COc1cc(CSc2nc3ccc(C)cc3c(=O)n2Cc2ccccc2)cc(OC)c1OC	> 100	55.7	77.5	48.8	> 100	9.75		> 100	1.72	3.89	7.07	2.57	1.08	2.29		6.53
CC(ONC(=O)c1cc(C(F)(F)F)cc(C(F)(F)F)c1)C(=O)Nc1ccc(Cl)cc1 (centres undefined)	> 41.3	50.6	16.7	42.4	29.4	35.6	30.9	> 100	4.68	4.55	3.71	5.43	5	5.95	3.66	5.44
